Reference: patent US4695568A, “Thieno[2,3-d]pyrimidine derivatives and salts thereof” (Mitsubishi Chemical Industries Limited, priority 1984, dated 1987)
Read-outs that look alike come from different tables or passages of the source.

Tests used:
[1] = test system: reserpine-induced hypothermia; assay: Antagonistic activity against reserpine-induced hypothermia; format: in vivo, ddY male mice; conditions: Mus musculus, po, read-out: ED50 (dose exhibiting 50% antagonistic activity against reserpine hypothermia)
Description: A. ANTAGONISTIC ACTIVITY AGAINST RESERPINE-INDUCED HYPOTHERMIA
A test was carried out using ddY male mice of 22-25 g in body weight, one group consisting of 6 mice.
The body temperature of mice was approximately 38° C. before the test. At 4 hours after intraperitoneal administration of reserpine in an amount of 5 mg/kg the body temperature of mice was reduced by approximately 8° C. in average. The test compound was simultaneously orally administered with 5 mg/kg of reserpine, and the degree of antagonistic effect of the test compound on the hypothermal action of reserpine was measured. This test has hitherto been the commonest method for evaluating anti-depressant activity.
Percentage (%) of an antagonistic activity was calculated by varying the doses of each test compound.

[2] = test system: passive avoidance response failure by electric shock; assay: Passive avoidance response failure by electric shock as model of amnesia; format: in vivo; conditions: p.o., male Wistar rats, 3 hours or more after oral administration
Description: B. PASSIVE AVOIDANCE RESPONSE FAILURE BY ELECTRIC SHOCK AS MODEL OF AMNESIA
The test apparatus used, called as "Two Compartment Avoidance Box", consisted of a large lit compartment and a small dark compartment having a grid floor to which an electric current can be applied, these two compartments being painted black innerly and connected to each other
Male Wistar rats of 170-220 g in body weight enter into the small box soon after they are introduced into the large box. […] This response is called as "passive avoidance response".
However, if an electric shock of 60 mA, 200 Hz for 0.8 second is given to the rat by electrodes set on both ears of the rat immediately after the rat comes out of the small box upon the application of the electric current, the "passive avoidance response" is inhibited. Indeed, the period for entering into the small box from the large box, latency, is shortened. This phenomenon is caused by loss of memory of the electric current applied from the grid floor by the electric shock. The shortened time of latency is used as an index of the loss of memory.
A memory improvement effect of a test compound is expressed in the degree of prolongation of latency (% improvement) in a test carried out 3 hours or more after the oral administration of the test compound after application of an electric shock.

[3] = Acute toxicity (LD50) in male mice; conditions: mouse, in vivo, po
[4] = mice, test compound orally, simultaneously with reserpine 5 mg/kg, body temperature at 4 hours, Litchfield-Wilcoxon method

In the case of `Cc1cc2c(-c3ccccc3C)nc(N3CCNCC3)nc2s1` [Example 16], the ED50 [1, 4] was 0.5 mg/kg, the “Improvement (prolongation of latency)” value ([2]; 25 mg/kg) was 12.8% and the “Improvement (prolongation of latency)” value ([2]; 100 mg/kg) was 46.6%. The LD50 [3] was 1400 mg/kg.

With `Cc1cc2c(-c3ccccc3F)nc(N3CCNCC3)nc2s1` [Example 14] the ED50 [1, 4] was 0.27 mg/kg, the “Improvement (prolongation of latency)” value ([2]; 25 mg/kg) was 30.9% and the “Improvement (prolongation of latency)” value ([2]; 100 mg/kg) was 51.5%. It also gave an LD50 [3] of 1110 mg/kg.

For `Cc1cc2c(-c3ccccc3C#N)nc(N3CCNCC3)nc2s1` [Example 20], the ED50 [1, 4] was 1.5 mg/kg and the LD50 [3] was 370 mg/kg.

For `Cc1cc2c(-c3ccccc3)nc(N3CCNCC3)nc2s1` [Example 1, 6-METHYL-4-PHENYL-2-PIPERAZINYLTHIENO[2,3-d]PYRIMIDINE], the ED50 [1, 4] was 2 mg/kg, the “Improvement (prolongation of latency)” value ([2]; 25 mg/kg) was 6.8% and the “Improvement (prolongation of latency)” value ([2]; 100 mg/kg) was 22.7%. For the same compound, the LD50 [3] was 1170 mg/kg.

In the case of `Cc1sc2nc(N3CCNCC3)nc(-c3ccccc3)c2c1C` [Example 4, 5,6-dimethyl-4-phenyl-2-piperazinyl-thieno[2,3-d]pyrimidine], the ED50 [1, 4] was 1.8 mg/kg and the LD50 ([3]; male mice) was 1330 mg/kg.

`Cc1csc2nc(N3CCNCC3)nc(-c3ccccc3)c12` [Example 5, 5-methyl-4-phenyl-2-piperazinyl-thieno[2,3-d]pyrimidine] gave an ED50 [1, 4] of 4 mg/kg and an LD50 ([3]; male mice) of 275 mg/kg.

`Clc1cc2c(-c3ccccc3)nc(N3CCNCC3)nc2s1` [Example 7, 6-chloro-4-phenyl-2-piperazinyl-thieno[2,3-d]pyrimidine] showed an ED50 [1, 4] of 2.4 mg/kg.

With `Cc1cc2c(-c3ccccc3Br)nc(N3CCNCC3)nc2s1` [Example 15] the ED50 [1, 4] was 2.9 mg/kg and the LD50 [3] was 1750 mg/kg.

For `NC(=O)CN1CCCC1=O` [Piracetam, reference compound], the “Improvement (prolongation of latency)” value ([2]; 250 mg/kg) was 22.0% and the “Improvement (prolongation of latency)” value ([2]; 500 mg/kg) was 14.1%.

`CN(C)CCC=C1c2ccccc2CCc2ccccc21` [Amitriptyline, reference compound] showed an ED50 ([1]; 4 h) of 14.5 mg/kg and an LD50 ([3]; male mice) of 380 mg/kg.
